Laboratory results published in PubChem BioAssay AID1982 (Sanford-Burnham Center for Chemical Genomics, 2009).
Calls of active or inactive are those of the source. No rule for the calls is given here.

Legend:
Test in all cases: kinase panel binding selectivity, selectivity assay, biochemical, KINOMEscan (AID 1982)
ULK3 = details: KINOMEscan 353-kinase binding panel, qPCR, at 10 µM, stronger effect = lower value
SRPK3 = details: KINOMEscan 353-kinase binding panel, qPCR, at 10 µM, stronger effect = lower value
ULK2 = details: KINOMEscan 353-kinase binding panel, qPCR, at 10 µM, stronger effect = lower value
CHEK2 = details: KINOMEscan 353-kinase binding panel, qPCR, at 10 µM, stronger effect = lower value
[1] = biological target: Proto-oncogene tyrosine-protein kinase Src (Homo sapiens) (UniProt P12931); details: KINOMEscan 353-kinase binding panel, qPCR, at 10 µM, stronger effect = lower value
[2] = biological target: Serine/threonine-protein kinase pim-3 (Homo sapiens) (UniProt Q86V86); details: KINOMEscan 353-kinase binding panel, qPCR; PIM3; at 10 µM; stronger effect = lower value
[3] = biological target: Tyrosine-protein kinase Fyn (Homo sapiens) (UniProt P06241); details: KINOMEscan 353-kinase binding panel, qPCR, at 10 µM, stronger effect = lower value
EPHB1 = details: KINOMEscan 353-kinase binding panel, qPCR, at 10 µM, stronger effect = lower value
ACVR1 = details: KINOMEscan 353-kinase binding panel, qPCR, at 10 µM, stronger effect = lower value
[4] = biological target: RAC-gamma serine/threonine-protein kinase (Homo sapiens) (UniProt Q9Y243); details: KINOMEscan 353-kinase binding panel, qPCR; AKT3; at 10 µM; stronger effect = lower value
[5] = biological target: Rho-associated protein kinase 2 (Homo sapiens) (UniProt O75116); details: KINOMEscan 353-kinase binding panel, qPCR; ROCK2; at 10 µM; stronger effect = lower value
ANKK1 = details: KINOMEscan 353-kinase binding panel, qPCR, at 10 µM, stronger effect = lower value
[6] = biological target: Non-receptor tyrosine-protein kinase TYK2 (Homo sapiens) (UniProt P29597); details: KINOMEscan 353-kinase binding panel, qPCR, at 10 µM, stronger effect = lower value
Sequence of Non-receptor tyrosine-protein kinase TYK2 (Homo sapiens) (P29597 whole entry, looked up): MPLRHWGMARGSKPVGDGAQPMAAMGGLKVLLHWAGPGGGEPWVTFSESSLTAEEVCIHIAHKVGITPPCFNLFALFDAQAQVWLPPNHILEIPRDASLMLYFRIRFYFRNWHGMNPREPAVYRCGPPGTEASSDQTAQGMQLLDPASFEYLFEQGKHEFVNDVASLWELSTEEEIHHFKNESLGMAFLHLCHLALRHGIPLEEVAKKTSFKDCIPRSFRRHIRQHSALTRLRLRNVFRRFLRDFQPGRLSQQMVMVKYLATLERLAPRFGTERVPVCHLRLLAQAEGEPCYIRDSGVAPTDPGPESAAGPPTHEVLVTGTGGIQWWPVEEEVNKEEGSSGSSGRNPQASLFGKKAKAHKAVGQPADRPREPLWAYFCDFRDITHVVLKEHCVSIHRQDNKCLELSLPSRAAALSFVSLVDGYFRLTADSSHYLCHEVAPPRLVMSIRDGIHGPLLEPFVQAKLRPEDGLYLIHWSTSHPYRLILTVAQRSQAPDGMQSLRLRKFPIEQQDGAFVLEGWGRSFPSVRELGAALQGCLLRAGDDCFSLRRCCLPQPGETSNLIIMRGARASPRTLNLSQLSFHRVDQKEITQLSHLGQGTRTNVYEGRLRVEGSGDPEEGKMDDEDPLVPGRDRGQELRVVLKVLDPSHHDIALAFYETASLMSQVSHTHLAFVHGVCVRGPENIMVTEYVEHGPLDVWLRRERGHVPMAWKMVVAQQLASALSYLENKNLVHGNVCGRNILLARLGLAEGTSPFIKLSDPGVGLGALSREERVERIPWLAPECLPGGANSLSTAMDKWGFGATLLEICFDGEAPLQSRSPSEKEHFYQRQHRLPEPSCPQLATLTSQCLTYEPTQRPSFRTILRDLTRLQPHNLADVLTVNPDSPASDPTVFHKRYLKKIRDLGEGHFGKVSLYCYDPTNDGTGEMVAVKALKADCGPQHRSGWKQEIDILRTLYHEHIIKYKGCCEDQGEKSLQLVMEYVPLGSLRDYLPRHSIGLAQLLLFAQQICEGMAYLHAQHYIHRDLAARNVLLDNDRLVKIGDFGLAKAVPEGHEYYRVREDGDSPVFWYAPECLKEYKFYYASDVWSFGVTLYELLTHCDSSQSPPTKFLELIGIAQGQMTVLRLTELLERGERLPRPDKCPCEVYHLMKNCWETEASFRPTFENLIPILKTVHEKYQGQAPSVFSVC

[7] = biological target: Dual specificity tyrosine-phosphorylation-regulated kinase 1B (Homo sapiens) (UniProt Q9Y463); details: KINOMEscan 353-kinase binding panel, qPCR; DYRK1B; at 10 µM; stronger effect = lower value
TIE1 = details: KINOMEscan 353-kinase binding panel, qPCR, at 10 µM, stronger effect = lower value
[8] = biological target: Phosphatidylinositol 5-phosphate 4-kinase type-2 beta (Homo sapiens) (UniProt P78356); details: KINOMEscan 353-kinase binding panel, qPCR; PIP5K2B; at 10 µM; stronger effect = lower value
[9] = biological target: RAC-alpha serine/threonine-protein kinase (Homo sapiens) (UniProt P31749); details: KINOMEscan 353-kinase binding panel, qPCR; AKT1; at 10 µM; stronger effect = lower value
PIK3CD = details: KINOMEscan 353-kinase binding panel, qPCR, at 10 µM, stronger effect = lower value
LOK = details: KINOMEscan 353-kinase binding panel, qPCR, at 10 µM, stronger effect = lower value
[10] = biological target: Tyrosine-protein kinase receptor UFO (Homo sapiens) (UniProt P30530); details: KINOMEscan 353-kinase binding panel, qPCR; AXL; at 10 µM; stronger effect = lower value
EPHA1 = details: KINOMEscan 353-kinase binding panel, qPCR, at 10 µM, stronger effect = lower value
[11] = biological target: Vascular endothelial growth factor receptor 1 (Homo sapiens) (UniProt P17948); details: KINOMEscan 353-kinase binding panel, qPCR; FLT1; at 10 µM; stronger effect = lower value
[12] = biological target: MAP/microtubule affinity-regulating kinase 4 (Homo sapiens) (UniProt Q96L34); details: KINOMEscan 353-kinase binding panel, qPCR; MARK4; at 10 µM; stronger effect = lower value
[13] = biological target: MAP kinase-interacting serine/threonine-protein kinase 2 (Homo sapiens) (UniProt Q9HBH9); details: KINOMEscan 353-kinase binding panel, qPCR; MKNK2; at 10 µM; stronger effect = lower value
[14] = biological target: Epidermal growth factor receptor (Homo sapiens) (UniProt P00533); details: KINOMEscan 353-kinase binding panel, qPCR, at 10 µM, stronger effect = lower value
Sequence of Epidermal growth factor receptor (Homo sapiens) (P00533 whole entry, looked up): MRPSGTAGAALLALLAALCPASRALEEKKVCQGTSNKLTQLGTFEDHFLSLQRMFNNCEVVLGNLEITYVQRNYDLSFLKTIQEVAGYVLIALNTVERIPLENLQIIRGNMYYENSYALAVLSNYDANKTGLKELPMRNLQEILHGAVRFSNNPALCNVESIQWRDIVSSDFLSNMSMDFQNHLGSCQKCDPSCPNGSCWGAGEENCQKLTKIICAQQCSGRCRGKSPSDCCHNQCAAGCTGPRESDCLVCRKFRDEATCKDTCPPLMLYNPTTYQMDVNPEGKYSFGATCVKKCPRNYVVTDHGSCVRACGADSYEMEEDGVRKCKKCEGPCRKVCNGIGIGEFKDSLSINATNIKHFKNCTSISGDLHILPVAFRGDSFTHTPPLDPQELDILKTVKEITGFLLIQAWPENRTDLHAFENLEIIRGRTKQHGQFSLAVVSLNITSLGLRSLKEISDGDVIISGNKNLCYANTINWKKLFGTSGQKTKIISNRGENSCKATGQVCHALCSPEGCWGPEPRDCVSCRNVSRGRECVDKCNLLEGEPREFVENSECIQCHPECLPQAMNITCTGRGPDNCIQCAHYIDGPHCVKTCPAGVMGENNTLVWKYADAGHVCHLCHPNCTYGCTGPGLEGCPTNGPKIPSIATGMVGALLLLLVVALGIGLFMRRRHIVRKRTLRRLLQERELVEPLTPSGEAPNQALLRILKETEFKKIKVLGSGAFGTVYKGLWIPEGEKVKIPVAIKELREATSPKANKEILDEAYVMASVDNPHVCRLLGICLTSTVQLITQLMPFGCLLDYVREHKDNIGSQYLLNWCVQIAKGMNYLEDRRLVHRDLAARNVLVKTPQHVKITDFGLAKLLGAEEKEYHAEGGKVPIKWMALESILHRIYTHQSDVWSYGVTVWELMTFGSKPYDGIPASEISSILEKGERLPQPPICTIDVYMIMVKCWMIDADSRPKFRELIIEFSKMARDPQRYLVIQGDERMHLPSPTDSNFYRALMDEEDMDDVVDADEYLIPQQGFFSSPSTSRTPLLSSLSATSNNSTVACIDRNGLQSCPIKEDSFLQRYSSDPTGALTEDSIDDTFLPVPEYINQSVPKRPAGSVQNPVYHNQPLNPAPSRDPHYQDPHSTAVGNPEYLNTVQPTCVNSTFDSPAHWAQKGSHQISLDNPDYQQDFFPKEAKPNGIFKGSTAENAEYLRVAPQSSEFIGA

[15] = biological target: Serine/threonine-protein kinase 17A (Homo sapiens) (UniProt Q9UEE5); details: KINOMEscan 353-kinase binding panel, qPCR; DRAK1; at 10 µM; stronger effect = lower value
Sequence of Serine/threonine-protein kinase 17A (Homo sapiens) (Q9UEE5 whole entry, looked up, canonical isoform): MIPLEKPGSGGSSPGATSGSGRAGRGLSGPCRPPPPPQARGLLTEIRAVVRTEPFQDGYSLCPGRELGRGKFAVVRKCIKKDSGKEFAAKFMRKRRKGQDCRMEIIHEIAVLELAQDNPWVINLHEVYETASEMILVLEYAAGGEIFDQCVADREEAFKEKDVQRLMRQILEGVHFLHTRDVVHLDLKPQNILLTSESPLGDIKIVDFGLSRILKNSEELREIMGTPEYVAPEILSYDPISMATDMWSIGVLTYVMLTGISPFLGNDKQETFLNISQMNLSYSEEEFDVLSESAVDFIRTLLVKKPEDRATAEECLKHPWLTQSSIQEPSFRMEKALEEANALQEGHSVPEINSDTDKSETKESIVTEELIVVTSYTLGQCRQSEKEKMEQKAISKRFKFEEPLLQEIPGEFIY

[16] = biological target: Phosphorylase b kinase gamma catalytic chain, liver/testis isoform (Homo sapiens) (UniProt P15735); details: KINOMEscan 353-kinase binding panel, qPCR; PHKG2; at 10 µM; stronger effect = lower value
[17] = biological target: Receptor tyrosine-protein kinase erbB-4 (Homo sapiens) (UniProt Q15303); details: KINOMEscan 353-kinase binding panel, qPCR; ERBB4; at 10 µM; stronger effect = lower value
Sequence of Receptor tyrosine-protein kinase erbB-4 (Homo sapiens) (Q15303 whole entry, looked up): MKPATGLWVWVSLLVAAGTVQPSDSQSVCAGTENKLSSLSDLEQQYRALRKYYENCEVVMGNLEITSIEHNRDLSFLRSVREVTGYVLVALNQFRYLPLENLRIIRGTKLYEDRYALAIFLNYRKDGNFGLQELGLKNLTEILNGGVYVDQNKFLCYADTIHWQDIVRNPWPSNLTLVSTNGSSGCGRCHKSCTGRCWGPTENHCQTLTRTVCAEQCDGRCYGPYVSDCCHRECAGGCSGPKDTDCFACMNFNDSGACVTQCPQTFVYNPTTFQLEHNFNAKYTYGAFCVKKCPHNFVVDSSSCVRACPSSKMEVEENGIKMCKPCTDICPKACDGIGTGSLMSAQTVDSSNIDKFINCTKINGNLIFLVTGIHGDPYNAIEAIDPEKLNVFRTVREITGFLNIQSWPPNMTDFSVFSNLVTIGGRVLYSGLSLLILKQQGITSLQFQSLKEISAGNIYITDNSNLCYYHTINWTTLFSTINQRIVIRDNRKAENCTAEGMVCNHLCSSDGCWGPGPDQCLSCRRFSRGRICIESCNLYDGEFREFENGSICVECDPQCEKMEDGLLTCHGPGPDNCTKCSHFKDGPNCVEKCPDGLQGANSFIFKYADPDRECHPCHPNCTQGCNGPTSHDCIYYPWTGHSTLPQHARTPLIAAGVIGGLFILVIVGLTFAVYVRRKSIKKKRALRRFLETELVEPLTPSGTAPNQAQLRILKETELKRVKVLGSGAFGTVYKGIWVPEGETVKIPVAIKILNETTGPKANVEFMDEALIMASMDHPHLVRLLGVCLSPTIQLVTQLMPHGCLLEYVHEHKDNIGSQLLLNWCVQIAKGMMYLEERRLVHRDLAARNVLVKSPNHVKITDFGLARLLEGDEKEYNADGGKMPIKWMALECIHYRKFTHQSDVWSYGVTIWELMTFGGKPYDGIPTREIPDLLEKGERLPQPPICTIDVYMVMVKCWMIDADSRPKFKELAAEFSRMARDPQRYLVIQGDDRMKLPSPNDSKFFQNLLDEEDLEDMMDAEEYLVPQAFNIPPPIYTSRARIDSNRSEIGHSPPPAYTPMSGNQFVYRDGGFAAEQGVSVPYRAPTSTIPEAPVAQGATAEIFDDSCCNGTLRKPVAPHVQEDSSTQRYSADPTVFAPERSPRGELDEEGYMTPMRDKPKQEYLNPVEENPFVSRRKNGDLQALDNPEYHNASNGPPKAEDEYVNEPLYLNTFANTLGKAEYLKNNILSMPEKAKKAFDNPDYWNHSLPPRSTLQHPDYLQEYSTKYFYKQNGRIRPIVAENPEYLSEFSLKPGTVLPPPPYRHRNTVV

[18] = biological target: Receptor-type tyrosine-protein kinase FLT3 (Homo sapiens) (UniProt P36888); details: KINOMEscan 353-kinase binding panel, qPCR, at 10 µM, stronger effect = lower value
Sequence of Receptor-type tyrosine-protein kinase FLT3 (Homo sapiens) (P36888 whole entry, looked up): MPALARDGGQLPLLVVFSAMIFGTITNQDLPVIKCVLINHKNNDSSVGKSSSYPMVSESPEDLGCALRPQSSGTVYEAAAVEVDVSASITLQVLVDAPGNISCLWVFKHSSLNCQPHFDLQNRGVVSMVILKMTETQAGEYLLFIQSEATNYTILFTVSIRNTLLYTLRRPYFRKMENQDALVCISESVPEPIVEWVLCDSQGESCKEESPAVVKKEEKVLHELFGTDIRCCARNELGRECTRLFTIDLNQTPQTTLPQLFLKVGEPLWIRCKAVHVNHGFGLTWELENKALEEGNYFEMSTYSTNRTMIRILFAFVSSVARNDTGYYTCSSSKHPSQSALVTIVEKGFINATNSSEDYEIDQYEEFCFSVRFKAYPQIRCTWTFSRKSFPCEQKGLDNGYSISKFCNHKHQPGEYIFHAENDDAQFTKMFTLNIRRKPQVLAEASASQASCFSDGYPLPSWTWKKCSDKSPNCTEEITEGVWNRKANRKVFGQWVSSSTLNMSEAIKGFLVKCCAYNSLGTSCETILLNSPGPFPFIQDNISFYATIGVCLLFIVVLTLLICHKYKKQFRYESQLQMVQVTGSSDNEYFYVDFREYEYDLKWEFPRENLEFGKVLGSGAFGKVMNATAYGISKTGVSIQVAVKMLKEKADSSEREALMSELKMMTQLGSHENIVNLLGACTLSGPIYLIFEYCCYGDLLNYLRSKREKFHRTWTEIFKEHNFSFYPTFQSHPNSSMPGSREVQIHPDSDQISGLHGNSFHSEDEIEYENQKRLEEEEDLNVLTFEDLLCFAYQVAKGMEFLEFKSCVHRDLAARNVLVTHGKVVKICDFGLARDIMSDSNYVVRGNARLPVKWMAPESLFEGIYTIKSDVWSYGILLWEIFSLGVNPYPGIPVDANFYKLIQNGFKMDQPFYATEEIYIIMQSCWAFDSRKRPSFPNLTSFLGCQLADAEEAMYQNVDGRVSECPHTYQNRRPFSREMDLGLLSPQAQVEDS

Measured: percent of control binding

Cc1cc2nc(NCCCO)n(CC(=O)c3cc(C(C)(C)C)c(O)c(C(C)(C)C)c3)c2cc1C
inactive: ULK3 100% | SRPK3 87% | ULK2 84% | CHEK2 100% | [1] 100% | [2] 100% | [3] 82% | EPHB1 95% | ACVR1 89% | [4] 100% | [5] 59% | ANKK1 100% | [6]; TYK2 Kin.Dom.1 84% | [6]; TYK2 Kin.Dom.2 98% | [7] 91% | TIE1 100% | [8] 99% | [9] 100% | PIK3CD 65% | LOK 95% | [10] 84% | EPHA1 100% | [11] 100% | [12] 98% | [13] 81% | [14]; EGFR(E746-A750del) 100% | [14]; EGFR(G719C) 89% | [14]; EGFR(G719S) 100% | [14]; EGFR(L747-E749del, A750P) 87% | [14]; EGFR(L747-S752del, P753S) 100% | [14]; EGFR(L747-T751del,Sins) 97% | [14]; EGFR(L858R) 77% | [14]; EGFR(L861Q) 59% | [14]; EGFR(S752-I759del) 100% | [14]; EGFR 86% | [15] 89% | [16] 100% | [17] 100% | [18] 100% | [18]; FLT3(D835H) 100% | [18]; FLT3(D835Y) 99% | [18]; FLT3(ITD) 100% | [18]; FLT3(K663Q) 100% | [18]; FLT3(N841I) 94%
